The source of these data is patent publication US9708368B2, “Linear peptide antibiotics” (priority 2012, dated 2017).

The subject of experiment [1] is Escherichia coli strain MC4100 IMP-4213, which harbors an LptD mutation. To be noted: Method B; E. coli MC4100 IMP-4213 (LptD mutation); 35° C., 22 hours. As to the method: In vitro antimicrobial activity of each compound was determined by measuring minimal inhibitor concentrations (MICs) using the broth micro-dilution technique as approved by the Clinical and Laboratory Standards Institute (CLSI). […] Bacterial inocula were prepared by scraping cells into 1 mL of testing media (cation adjusted Mueller Hinton Broth supplemented with 0.002% v/v Tween-80) and diluting to a final OD600 nm of 0.01.
Test compounds were prepared in DMSO at a concentration of 10 mg/ml. […] Bacterial inocula were added to the two fold serial dilutions of test compounds to a final density of OD OD600 nm of 0.0005 and incubated stationarily at 35° C. for 22 hours, after which the plates were examined visually.

The subject of experiment [2] is methicillin resistant Staphylococcus aureus (MRSA) strain USA300 (NRS384). The following applies: Method B, 35° C., 22 hours.
A further experiment concerns the target S. aureus SPase (Staphylococcus aureus, UniProt P0A070). Description: biochemical.
The target of another experiment is E. coli SPase (Escherichia coli, UniProt P00803). The experiment is described as follows: Biochemical SPase activity assay (fluorogenic peptide substrate), E. coli enzyme.

Converted amounts (≈) assume the structure as drawn. Square brackets hold non-standard residues; d marks the D form. Peptide text beside a SMILES is read from it. * marks the point of attachment. boroAla((+)-pinanediol) = C[C@H](N*)B1O[C@@H]2C[C@@H]3C[C@@H](C3(C)C)[C@]2(C)O1; Biphenylcarbonyl(4'-Bu) = CCCCc1ccc(-c2ccc(C(=O)*)cc2)cc1; X1 = C[C@H](N*)B1OC2C[C@@H]3C[C@@H](C3(C)C)[C@]2(C)O1; Benzoyl(4-(4-Cl-Ph)) = O=C(c1ccc(-c2ccc(Cl)cc2)cc1)*; Decanoyl = CCCCCCCCCC(=O)*; boroAla = C[C@H](N*)B(O)O; Dab = NCC[C@H](N)C(=O)O; Dap = NC[C@H](N)C(=O)O

S. aureus SPase, sequence (P0A070 whole entry): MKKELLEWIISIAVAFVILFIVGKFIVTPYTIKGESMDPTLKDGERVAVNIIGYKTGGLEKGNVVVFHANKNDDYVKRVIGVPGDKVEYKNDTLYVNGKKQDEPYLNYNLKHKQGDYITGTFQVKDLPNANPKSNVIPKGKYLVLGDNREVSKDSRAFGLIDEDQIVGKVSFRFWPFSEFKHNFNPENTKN
E. coli SPase, sequence (P00803 whole entry): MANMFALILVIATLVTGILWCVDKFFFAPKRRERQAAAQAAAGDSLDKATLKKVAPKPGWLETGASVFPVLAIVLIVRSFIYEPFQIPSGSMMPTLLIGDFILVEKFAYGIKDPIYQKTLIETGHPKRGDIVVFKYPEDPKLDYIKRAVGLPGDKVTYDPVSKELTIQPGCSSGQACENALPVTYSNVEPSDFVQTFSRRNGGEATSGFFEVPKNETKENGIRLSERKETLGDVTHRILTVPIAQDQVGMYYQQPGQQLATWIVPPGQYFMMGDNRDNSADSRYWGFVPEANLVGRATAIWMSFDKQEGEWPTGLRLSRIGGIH

As for `CCCCc1ccc(-c2ccc(C(=O)N[C@@H](CCCCN)C(=O)N[C@@H](CN)C(=O)N[C@@H](C)C(=O)N[C@@H](CC(C)C)C(=O)N[C@@H](C)B(O)O)cc2)cc1` [Compound 165] ({Biphenylcarbonyl(4'-Bu)}-K[Dap]AL-boroAla), the “MIC (μg/mL) E. coli” value in experiment [1] came to 0.63 µg/mL (≈ 0.87 µM). Also, the “MIC (μg/mL) S. aureus” value in experiment [2] was 0.63 µg/mL (≈ 0.87 µM). The IC50 is 410 nM against S. aureus SPase and 120 nM at E. coli SPase.
On to `CCCCc1ccc(-c2ccc(C(=O)N[C@@H](CCCCN)C(=O)NC(C(=O)N[C@@H](C)C(=O)N[C@@H](CCCCN)C(=O)N[C@@H](C)B(O)O)c3ccc(OC)cc3)cc2)cc1` (stereo partly shown) [Compound 166], for which the “MIC (μg/mL) E. coli” value in experiment [1] was found to be 0.5 µg/mL (≈ 0.613 µM). In experiment [2], the “MIC (μg/mL) S. aureus” value was determined as 0.63 µg/mL (≈ 0.772 µM). In addition, the IC50 was 350 nM against S. aureus SPase and 36 nM against E. coli SPase.
Take `C[C@H](NC(=O)[C@H](CCCCN)NC(=O)[C@H](C)NC(=O)[C@@H](NC(=O)[C@H](CN)NC(=O)c1ccc(-c2ccc(Cl)cc2)cc1)[C@@H](C)O)B1OC2C[C@@H]3C[C@@H](C3(C)C)[C@]2(C)O1` (stereo partly shown) [Compound 167] ({Benzoyl(4-(4-Cl-Ph))}-[Dap]TAK-X1): in experiment [1], the “MIC (μg/mL) E. coli” value worked out at 4 µg/mL (≈ 4.85 µM). Besides, in experiment [2], the “MIC (μg/mL) S. aureus” value was determined as 1.7 µg/mL (≈ 2.06 µM). Besides, the IC50 was found to be 190 nM on S. aureus SPase and 5.2 nM at E. coli SPase.
Turning to `C[C@H](NC(=O)[C@H](CCCCN)NC(=O)[C@H](C)NC(=O)[C@H](CCCCN)NC(=O)[C@H](CN)NC(=O)c1ccc(-c2ccc(Cl)cc2)cc1)B1OC2C[C@@H]3C[C@@H](C3(C)C)[C@]2(C)O1` (stereo partly shown) [Compound 168] ({Benzoyl(4-(4-Cl-Ph))}-[Dap]KAK-X1), the “MIC (μg/mL) E. coli” value in experiment [1] stood at 1 µg/mL (≈ 1.17 µM). The “MIC (μg/mL) S. aureus” value in experiment [2] amounted to 0.79 µg/mL (≈ 0.928 µM). In addition, the IC50 is 250 nM at S. aureus SPase and 5.4 nM at E. coli SPase.
As to `CCCCCCCCCC(=O)N[C@@H](CN)C(=O)N[C@H](C(=O)N[C@@H](C)C(=O)N[C@@H](CCCCN)C(=O)N[C@@H](C)B1OC2C[C@@H]3C[C@@H](C3(C)C)[C@]2(C)O1)[C@@H](C)O` (stereo partly shown) [Compound 169] (Decanoyl-[Dap]TAK-X1), the “MIC (μg/mL) E. coli” value in experiment [1] came to 11 µg/mL (≈ 14.4 µM). For the same molecule, the “MIC (μg/mL) S. aureus” value in experiment [2] amounted to 3.2 µg/mL (≈ 4.19 µM). The IC50 against S. aureus SPase was 87 nM; at E. coli SPase, 3.9 nM.
On to `CCCCc1ccc(-c2ccc(C(=O)N[C@@H](CN)C(=O)N[C@@H](CN)C(=O)N[C@@H](C)C(=O)N[C@@H](CC(C)C)C(=O)N[C@@H](C)B3OC4C[C@@H]5C[C@@H](C5(C)C)[C@]4(C)O3)cc2)cc1` (stereo partly shown) [Compound 170] ({Biphenylcarbonyl(4'-Bu)}-[Dap][Dap]AL-X1), for which, in experiment [1], the “MIC (μg/mL) E. coli” value worked out at 0.4 µg/mL (≈ 0.49 µM). Also, the “MIC (μg/mL) S. aureus” value in experiment [2] is 2 µg/mL (≈ 2.45 µM). Moreover, the IC50 at S. aureus SPase came to 530 nM; on E. coli SPase, 10 nM.
Regarding `CCCCc1ccc(-c2ccc(C(=O)N[C@@H](CCN)C(=O)N[C@@H](CCN)C(=O)N[C@@H](C)C(=O)N[C@@H](CC(C)C)C(=O)N[C@@H](C)B3O[C@@H]4C[C@@H]5C[C@@H](C5(C)C)[C@]4(C)O3)cc2)cc1` [Compound 171] ({Biphenylcarbonyl(4'-Bu)}-[Dab][Dab]AL-{boroAla((+)-pinanediol)}), in experiment [1], the “MIC (μg/mL) E. coli” value was determined as 0.25 µg/mL (≈ 0.296 µM). The “MIC (μg/mL) S. aureus” value in experiment [2] came out at 0.71 µg/mL (≈ 0.841 µM). For the same molecule, the results for the IC50 against S. aureus SPase and on E. coli SPase were 520 nM and 27 nM, respectively.
On the same counts, the results for `CC(C)C[C@H](NC(=O)[C@H](C)NC(=O)[C@H](CN)NC(=O)[C@H](CN)NC(=O)c1ccc(-c2ccc(Cl)cc2)cc1)C(=O)N[C@@H](C)B1O[C@@H]2C[C@@H]3C[C@@H](C3(C)C)[C@]2(C)O1` [Compound 172] ({Benzoyl(4-(4-Cl-Ph))}-[Dap][Dap]AL-{boroAla((+)-pinanediol)}) are 8 µg/mL (≈ 10.1 µM), 8 µg/mL (≈ 10.1 µM), 750 nM and 20 nM.
`CC(C)C[C@H](NC(=O)[C@H](C)NC(=O)[C@H](CCN)NC(=O)[C@H](CCN)NC(=O)c1ccc(-c2ccc(Cl)cc2)cc1)C(=O)N[C@@H](C)B1OC2C[C@@H]3C[C@@H](C3(C)C)[C@]2(C)O1` (stereo partly shown) [Compound 173] ({Benzoyl(4-(4-Cl-Ph))}-[Dab][Dab]AL-X1): the “MIC (μg/mL) E. coli” value in experiment [1] came out at 2 µg/mL (≈ 2.43 µM). In experiment [2], the “MIC (μg/mL) S. aureus” value was determined as 2 µg/mL (≈ 2.43 µM). The IC50 against S. aureus SPase came to 550 nM; at E. coli SPase, 69 nM.
Consider `CCCCc1ccc(-c2ccc(C(=O)N[C@@H](CCCNC(=N)N)C(=O)N[C@H](C(=O)N[C@@H](C)C(=O)N[C@@H](CCCCN)C(=O)N[C@@H](C)B3O[C@@H]4C[C@@H]5C[C@@H](C5(C)C)[C@]4(C)O3)[C@@H](C)O)cc2)cc1` [Compound 174] ({Biphenylcarbonyl(4'-Bu)}-RTAK-{boroAla((+)-pinanediol)}), for which the “MIC (μg/mL) E. coli” value in experiment [1] is 0.5 µg/mL (≈ 0.546 µM). The “MIC (μg/mL) S. aureus” value in experiment [2] came out at 0.25 µg/mL (≈ 0.273 µM). Moreover, the 50% inhibitory concentration (IC50) was 130 nM on S. aureus SPase and 59 nM against E. coli SPase.
As for `C[C@H](NC(=O)[C@H](CCCCN)NC(=O)[C@H](C)NC(=O)[C@@H](NC(=O)[C@H](CN)NC(=O)c1ccc(-c2ccc(Cl)cc2)cc1)[C@@H](C)O)B(O)O` [Compound 175] ({Benzoyl(4-(4-Cl-Ph))}-[Dap]TAK-boroAla), the “MIC (μg/mL) E. coli” value in experiment [1] is 2 µg/mL (≈ 2.9 µM). In experiment [2], the “MIC (μg/mL) S. aureus” value was 1.2 µg/mL (≈ 1.74 µM). For the same molecule, the concentration for half-maximal inhibition (IC50) turned out to be 110 nM on S. aureus SPase and 5.5 nM at E. coli SPase.
Take `CC(C)C[C@H](NC(=O)[C@H](C)NC(=O)[C@H](CN)NC(=O)[C@H](CN)NC(=O)c1ccc(-c2ccc(Cl)cc2)cc1)C(=O)N[C@@H](C)B(O)O` [Compound 176] ({Benzoyl(4-(4-Cl-Ph))}-[Dap][Dap]AL-boroAla): the “MIC (μg/mL) E. coli” value in experiment [1] came to 8 µg/mL (≈ 12.1 µM). In addition, the “MIC (μg/mL) S. aureus” value in experiment [2] turned out to be 16 µg/mL (≈ 24.2 µM). The IC50 against S. aureus SPase was found to be 1200 nM; at E. coli SPase it was 56 nM.
`CC(C)C[C@H](NC(=O)[C@H](C)NC(=O)[C@H](CCN)NC(=O)[C@H](CCN)NC(=O)c1ccc(-c2ccc(Cl)cc2)cc1)C(=O)N[C@@H](C)B(O)O` [Compound 177] ({Benzoyl(4-(4-Cl-Ph))}-[Dab][Dab]AL-boroAla): the “MIC (μg/mL) E. coli” value in experiment [1] was determined as 2 µg/mL (≈ 2.91 µM). In experiment [2], the “MIC (μg/mL) S. aureus” value came out at 2 µg/mL (≈ 2.91 µM). The 50% inhibitory concentration (IC50) against S. aureus SPase was 640 nM; at E. coli SPase, 70 nM.
In the case of `CCCCc1ccc(-c2ccc(C(=O)N[C@@H](CCN)C(=O)N[C@H](C(=O)N[C@@H](C)C(=O)N[C@@H](CCCCN)C(=O)N[C@@H](C)B(O)O)[C@@H](C)O)cc2)cc1` [Compound 178] ({Biphenylcarbonyl(4'-Bu)}-[Dab]TAK-boroAla), the “MIC (μg/mL) E. coli” value in experiment [1] worked out at 0.25 µg/mL (≈ 0.344 µM). The “MIC (μg/mL) S. aureus” value in experiment [2] turned out to be 0.063 µg/mL (≈ 0.0868 µM). Further, the IC50 on S. aureus SPase was determined as 58 nM; at E. coli SPase it was 3.1 nM.
As to `CCCCc1ccc(-c2ccc(C(=O)N[C@@H](CCN)C(=O)N[C@@H](CCN)C(=O)N[C@@H](C)C(=O)N[C@@H](CC(C)C)C(=O)N[C@@H](C)B(O)O)cc2)cc1` [Compound 179] ({Biphenylcarbonyl(4'-Bu)}-[Dab][Dab]AL-boroAla), the “MIC (μg/mL) E. coli” value in experiment [1] is 0.5 µg/mL (≈ 0.705 µM). Further, the “MIC (μg/mL) S. aureus” value in experiment [2] amounted to 2 µg/mL (≈ 2.82 µM). For the same molecule, the IC50 against S. aureus SPase was determined as 570 nM; against E. coli SPase, 22 nM.
`C[C@H](NC(=O)[C@H](CCCCN)NC(=O)[C@H](C)NC(=O)[C@H](CCCCN)NC(=O)[C@H](CN)NC(=O)c1ccc(-c2ccc(Cl)cc2)cc1)B(O)O` [Compound 180] ({Benzoyl(4-(4-Cl-Ph))}-[Dap]KAK-boroAla): the “MIC (μg/mL) E. coli” value in experiment [1] was found to be 1 µg/mL (≈ 1.39 µM). Besides, the “MIC (μg/mL) S. aureus” value in experiment [2] is 1 µg/mL (≈ 1.39 µM). The IC50 at S. aureus SPase worked out at 280 nM; on E. coli SPase it was 11 nM.

One may read the IC50 as the midpoint of a concentration-inhibition curve.
